Assays:
THP-1 = experiment: Antiproliferative activity against human THP-1 cells assessed as inhibition of cell growth; format: functional, cell-based
K562 = experiment: Antiproliferative activity against human K562 cells assessed as inhibition of cell growth; format: functional, cell-based
MV4-11 = experiment: Cytotoxicity against human MV4-11 cells; format: functional, cell-based
NCI-H460 = experiment: Antiproliferative activity against human NCI-H460 cells assessed as inhibition of cell growth incubated for 24 hrs by MTT assay; format: functional, cell-based; details: NCI-H460, 24 h
MDA-MB-231 = experiment: Antiproliferative activity against human MDA-MB-231 cells assessed as inhibition of cell growth incubated for 24 hrs by MTT assay; format: functional, cell-based; details: MDA-MB-231, 24 h
A2780 = experiment: Antiproliferative activity against human A2780 cells assessed as inhibition of cell growth incubated for 24 hrs by MTT assay; format: functional, cell-based; details: A2780, 24 h
MCF7 [1] = experiment: Antiproliferative activity against human MCF7 cells assessed as inhibition of cell growth incubated for 24 hrs by MTT assay; format: functional, cell-based; details: MCF7, 24 h
HCT-15 [2] = experiment: Antiproliferative activity against human HCT-15 cells assessed as inhibition of cell growth incubated for 24 hrs by MTT assay; format: functional, cell-based; details: HCT-15, 24 h
PC-3 = experiment: Antiproliferative activity against human PC-3 cells assessed as inhibition of cell growth incubated for 72 hrs by MTT assay; format: functional, cell-based; details: PC-3, 72 h
LNCaP = experiment: Antiproliferative activity against human LNCaP cells assessed as inhibition of cell growth incubated for 72 hrs by MTT assay; format: functional, cell-based
SGC-7901 = experiment: Antiproliferative activity against human SGC-7901 cells assessed as inhibition of cell growth incubated for 48 hrs by MTT assay; format: functional, cell-based; details: SGC-7901, 48 h
HepG2 = experiment: Antiproliferative activity against human HepG2 cells assessed as inhibition of cell growth incubated for 48 hrs by MTT assay; format: functional, cell-based; details: HepG2, 48 h
MCF7 [3] = experiment: Antiproliferative activity against human MCF7 cells; format: functional, cell-based
NCI-H187 = experiment: Antiproliferative activity against human NCI-H187 cells; format: functional, cell-based
HCT-15 [4] = experiment: Cytotoxicity against human HCT-15 cells incubated for 48 hrs by MTT assay; format: functional, cell-based; details: HCT-15, 48 h
HCT-116 = experiment: Cytotoxicity against human HCT-116 cells incubated for 48 hrs by MTT assay; format: functional, cell-based; details: HCT-116, 48 h
AGS [5] = experiment: Antiproliferative activity against human AGS cells assessed as inhibition of cell growth incubated for 3 days by MTT assay; format: functional, cell-based; details: 72 h
HeLa = experiment: Cytotoxicity against human HeLa cells assessed as inhibition of cell growth incubated for 48 hrs by MTT assay; format: functional, cell-based
SK-MEL-5 = experiment: Antiproliferative activity against human SK-MEL-5 cells assessed as inhibition of cell growth incubated for 96 hrs by SRB assay; format: functional, cell-based; details: SK-MEL-5, 96 h
T-24 = experiment: Cytotoxicity against human T24 cells assessed as reduction in cell growth incubated for 48 hrs by MTT assay; format: functional, cell-based; details: T-24, 48 h
DU-145 = experiment: Cytotoxicity against human DU-145 cells assessed as reduction in cell growth incubated for 48 hrs by MTT assay; format: functional, cell-based; details: DU-145, 48 h
MCF7 [6] = experiment: Cytotoxicity against human MCF7 cells assessed as reduction in cell growth incubated for 48 hrs by MTT assay; format: functional, cell-based; details: MCF7, 48 h
HT-29 = experiment: Antiproliferative activity against human HT-29 cells assessed as inhibition of cell growth incubated for 48 hrs by MTT assay; format: functional, cell-based; details: HT-29, 48 h
AGS [7] = experiment: Antiproliferative activity against human AGS cells assessed as inhibition of cell growth incubated for 24 hrs by MTT reagent based microplate reader assay; format: functional
MKN-28 = experiment: Antiproliferative activity against human MKN-28 cells assessed as inhibition of cell growth incubated for 24 hrs by MTT reagent based microplate reader assay; format: functional; details: MKN-28, 24 h
MKN-45 = experiment: Antiproliferative activity against human MKN-45 cells assessed as inhibition of cell growth incubated for 24 hrs by MTT reagent based microplate reader assay; format: functional; details: MKN-45, 24 h
[8] = Antiproliferative activity against human SNU-216 cells assessed as inhibition of cell growth incubated for 24 hrs by MTT reagent based microplate reader assay; format: functional; details: SNU-216, 24 h
[9] = Antiproliferative activity against human SNU-484 cells assessed as inhibition of cell growth incubated for 24 hrs by MTT reagent based microplate reader assay; format: functional; details: SNU-484, 24 h
NCI-N87 = experiment: Antiproliferative activity against human NCI-N87 cells assessed as inhibition of cell growth incubated for 24 hrs by MTT reagent based microplate reader assay; format: functional; details: NCI-N87, 24 h
[10] = Antiproliferative activity against human YCC-1 cells assessed as inhibition of cell growth incubated for 24 hrs by MTT reagent based microplate reader assay; format: functional; details: YCC-1, 24 h
[11] = Antiproliferative activity against human YCC-6 cells assessed as inhibition of cell growth incubated for 24 hrs by MTT reagent based microplate reader assay; format: functional; details: YCC-6, 24 h
[12] = Antiproliferative activity against human YCC-16 cells assessed as inhibition of cell growth incubated for 24 hrs by MTT reagent based microplate reader assay; format: functional; details: YCC-16, 24 h

CCNC1=CC(=O)c2ccccc2C1=O
IC50 (THP-1): 23 µM
IC50 (K562): 78 µM

O=C(Cc1ccc(C(=O)NO)cc1)NC1=CC(=O)c2ccccc2C1=O
EC50 (MV4-11): 0.367 µM

O=C1C=C(SCCO)C(=O)c2ccccc21
IC50 (NCI-H460): 4.24 µM
IC50 (MDA-MB-231): 16 µM
IC50 (A2780): 3.69 µM

O=C(NNC1=CC(=O)c2ccccc2C1=O)c1ccncc1
IC50 (MCF7 [1]): 20.9 µM
IC50 (HCT-15 [2]): 28.2 µM

O=C1c2ccccc2C(=O)c2oc(-c3ccccc3Cl)nc21
IC50 (PC-3): 1.26 µM
IC50 (LNCaP): 0.1 µM

COc1ccc(C2C3=C(Nc4nc(SC)nc(N)c42)C(=O)c2ccccc2C3=O)cc1Br (configuration not stated)
IC50 (SGC-7901): 4.39 µM
IC50 (HepG2): 5.91 µM

O=C(/C=C/C=C/c1ccc2c(c1)OCO2)OC1=CC(=O)c2ccccc2C1=O
IC50 (MCF7 [3]): 3.84 µM
IC50 (NCI-H187): 2.24 µM

C=CC(C)(C)C(SC(=O)c1cc(OC)c(OC)c(OC)c1)c1cc(OC)c2c(c1OC)/C(=N\O)C=C/C2=N\O (configuration not stated)
IC50 (HCT-15 [4]): 3.67 µM
IC50 (HCT-116): 4.95 µM

Cn1c(=O)c2c3c(c(-c4cccs4)nc2n(C)c1=O)C(=O)c1ccccc1C3=O
IC50 (AGS [5]): 3.3 µM

CC(C)(C)SC1=C(Cl)C(=O)c2ccccc2C1=O
IC50 (HeLa): 10.2 µM

C=CC/N=c1\sc2c(n1NC(=O)c1cc3ccc1CCc1ccc(cc1)CC3)C(=O)c1ccccc1C2=O
IC50 (SK-MEL-5): 0.81 µM

COc1cc(NC2=C(C(=O)c3ccccc3)C(=O)c3ccccc3C2=O)cc(OC)c1OC
IC50 (T-24): 11.6 µM
IC50 (DU-145): 8.12 µM
IC50 (MCF7 [6]): 7.53 µM

O=C(c1cccs1)c1cc2c(s1)C(=O)c1ccccc1C2=O
IC50 (HT-29): 1.73 µM

COc1ccc(SC2=CC(=O)c3c(OC)ccc(OC)c3C2=O)cc1
IC50 (AGS [7]): 0.32 µM
IC50 (MKN-28): 0.56 µM
IC50 (MKN-45): 0.63 µM
IC50 [8]: 1.22 µM
IC50 [9]: 0.64 µM
IC50 (NCI-N87): 0.73 µM
IC50 [10]: 0.71 µM
IC50 [11]: 0.42 µM
IC50 [12]: 1.35 µM

From ChEMBL document CHEMBL5512632, “Unlocking the potential of 1,4-naphthoquinones: A comprehensive review of their anticancer properties” (Eur J Med Chem, 2024)
